{"source": "ChEMBL document CHEMBL1128213", "about": "“1-Phenyl-3-(aminomethyl)pyrroles as potential antipsychotic agents. Synthesis and dopamine receptor binding” (J Med Chem, 1995)", "key": {"D(3) dopamine receptor": {"target": "D(3) dopamine receptor (Chlorocebus aethiops, UniProt P52703)", "sequence (P52703 whole entry)": "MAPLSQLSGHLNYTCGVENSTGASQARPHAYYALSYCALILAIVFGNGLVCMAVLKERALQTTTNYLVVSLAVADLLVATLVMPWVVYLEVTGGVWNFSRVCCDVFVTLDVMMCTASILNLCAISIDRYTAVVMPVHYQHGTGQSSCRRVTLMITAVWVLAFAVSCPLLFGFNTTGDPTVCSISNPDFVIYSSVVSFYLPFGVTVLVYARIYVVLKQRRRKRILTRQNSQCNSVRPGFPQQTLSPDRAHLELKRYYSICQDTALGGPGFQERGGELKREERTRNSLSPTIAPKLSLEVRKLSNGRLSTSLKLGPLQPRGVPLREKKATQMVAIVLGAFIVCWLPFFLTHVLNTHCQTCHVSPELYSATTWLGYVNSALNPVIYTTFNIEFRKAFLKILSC", "description": "Displacement of [3H]-YM 09151 from african monkey Dopamine receptor D3"}, "D(4) dopamine receptor": {"target": "T1, D(4) dopamine receptor (Homo sapiens, UniProt P21917)", "T1 sequence (P21917 whole entry)": "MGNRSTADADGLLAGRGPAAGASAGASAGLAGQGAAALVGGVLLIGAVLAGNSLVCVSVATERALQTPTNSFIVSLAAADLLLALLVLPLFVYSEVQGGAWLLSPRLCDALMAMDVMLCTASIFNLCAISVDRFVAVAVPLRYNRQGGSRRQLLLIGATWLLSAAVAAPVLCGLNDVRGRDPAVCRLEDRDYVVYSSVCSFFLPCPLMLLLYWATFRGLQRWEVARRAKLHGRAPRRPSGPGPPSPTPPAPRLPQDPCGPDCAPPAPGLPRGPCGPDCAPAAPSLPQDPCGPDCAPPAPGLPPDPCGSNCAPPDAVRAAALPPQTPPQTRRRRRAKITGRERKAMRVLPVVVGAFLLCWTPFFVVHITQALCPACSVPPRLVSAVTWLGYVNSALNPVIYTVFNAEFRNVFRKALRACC", "description": "Displacement of [3H]-YM 09151 from human Dopamine receptor D4"}, "D(2) dopamine receptor": {"target": "D(2) dopamine receptor (Rattus norvegicus, UniProt P61169)", "sequence (P61169 whole entry)": "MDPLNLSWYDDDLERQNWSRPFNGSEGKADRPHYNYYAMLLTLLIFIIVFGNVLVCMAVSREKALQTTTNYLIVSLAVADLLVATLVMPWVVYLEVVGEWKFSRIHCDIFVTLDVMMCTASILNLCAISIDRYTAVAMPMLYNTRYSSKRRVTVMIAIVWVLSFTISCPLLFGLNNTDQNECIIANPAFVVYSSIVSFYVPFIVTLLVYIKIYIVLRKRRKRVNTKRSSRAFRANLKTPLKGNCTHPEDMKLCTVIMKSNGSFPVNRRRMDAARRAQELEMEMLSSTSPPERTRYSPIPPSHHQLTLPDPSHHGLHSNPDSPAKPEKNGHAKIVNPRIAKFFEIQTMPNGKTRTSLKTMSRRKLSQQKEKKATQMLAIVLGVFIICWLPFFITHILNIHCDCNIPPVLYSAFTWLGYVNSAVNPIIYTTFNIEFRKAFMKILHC", "assay": "Binding affinity towards Dopamine receptor D2 of rat using [3H]spiperone"}}}
{"smiles": "c1ccc(C2CCN(Cc3ccn(-c4ccccc4)c3)CC2)cc1", "values": [{"measurement": "Ki", "setting": "D(3) dopamine receptor", "result": 61, "unit": "nM"}, {"measurement": "Ki", "setting": "D(4) dopamine receptor", "result": 9, "unit": "nM"}]}
{"smiles": "COc1ccccc1N1CCN(Cc2ccc(-c3ccccc3)n2C)CC1", "values": [{"measurement": "Ki", "setting": "D(2) dopamine receptor", "result": 0.8, "unit": "nM"}]}
{"smiles": "O=c1[nH]c2ccccc2n1C1CCN(Cc2ccn(-c3ccccc3)c2)CC1", "values": [{"measurement": "Ki", "setting": "D(3) dopamine receptor", "result": 398, "unit": "nM"}, {"measurement": "Ki", "setting": "D(4) dopamine receptor", "result": 646, "unit": "nM"}]}
{"smiles": "OC1(c2ccc(Cl)cc2)CCN(Cc2ccn(-c3ccccc3)c2)CC1", "values": [{"measurement": "Ki", "setting": "D(3) dopamine receptor", "result": 477, "unit": "nM"}, {"measurement": "Ki", "setting": "D(4) dopamine receptor", "result": 325, "unit": "nM"}]}
{"smiles": "C1=C(c2ccccc2)CCN(Cc2ccn(-c3ccccc3)c2)C1", "values": [{"measurement": "Ki", "setting": "D(4) dopamine receptor", "result": 4, "unit": "nM"}]}
{"smiles": "COc1ccccc1N1CCN(Cc2ccn(-c3ccccc3)c2)CC1", "values": [{"measurement": "Ki", "setting": "D(4) dopamine receptor", "result": 1.3, "unit": "nM"}]}
{"smiles": "c1ccc(-n2ccc(CN3CCN(c4ccccn4)CC3)c2)cc1", "values": [{"measurement": "Ki", "setting": "D(3) dopamine receptor", "result": 150, "unit": "nM"}, {"measurement": "Ki", "setting": "D(4) dopamine receptor", "result": 1.6, "unit": "nM"}]}
{"smiles": "c1ccc(N2CCN(Cc3ccn(-c4ccccc4)c3)CC2)cc1", "values": [{"measurement": "Ki", "setting": "D(3) dopamine receptor", "result": 49, "unit": "nM"}, {"measurement": "Ki", "setting": "D(4) dopamine receptor", "result": 4, "unit": "nM"}]}
{"smiles": "O=C1NCN(c2ccccc2)C12CCN(Cc1ccn(-c3ccccc3)c1)CC2", "values": [{"measurement": "Ki", "setting": "D(3) dopamine receptor", "result": 90, "unit": "nM"}, {"measurement": "Ki", "setting": "D(4) dopamine receptor", "result": 201, "unit": "nM"}]}
{"smiles": "OC1(c2cccc(C(F)(F)F)c2)CCN(Cc2ccn(-c3ccccc3)c2)CC1", "values": [{"measurement": "Ki", "setting": "D(3) dopamine receptor", "result": 420, "unit": "nM"}, {"measurement": "Ki", "setting": "D(4) dopamine receptor", "result": 492, "unit": "nM"}]}
{"smiles": "CN1CCN(C2=Nc3cc(Cl)ccc3Nc3ccccc32)CC1", "note": "[CLOZAPINE]", "values": [{"measurement": "Ki", "setting": "D(3) dopamine receptor", "result": 466, "unit": "nM"}]}
